Reference: article PMC12720774, “Detergents alter the stability and lipid binding properties of the CD1d immunoreceptor” (Protein Science : A Publication of the Protein Society, 2025)
Where “and” joins values, the source holds several entries; their conditions need not be identical. Identical values can stand only once. Like-named read-outs stand apart in the source and are kept apart here.

Tests used:
[1] = target: T1, recombinant human CD1d ectodomain/β2m complex (hCD1d) (Homo sapiens, UniProt P15813); test: Intrinsic tryptophan fluorescence (ITF) binding assay; settings: ITF - Kd (uM) average, Figure 5A; detergent binding to hCD1d
T1 construct: TEV protease cleavage site ENLYFQS (C); BirA biotinylation site (C); His7 (C); made in house; host or cells: TurboCHO cells (GenScript)
Protocol: (§1) For ITF assays, the concentration of hCD1d was kept constant, and intrinsic Trp fluorescence (excitation at 285 nm, emission at 335 nm) was measured as a function of increasing detergent concentration (Fossum et al., [2023]) (Figure S2). The change in relative fluorescence intensity (F − F 0/F 0) provides an indication of binding. […] This was due to limited detergent solubility and decreased hCD1d stability in the presence of a large excess of detergent (see below). […] SDS was the exception, for which Trp fluorescence of hCD1d decreased with added detergent. This could indicate a unique conformational change or destabilization of the protein.
(§2) ITF spectra were recorded from 300 to 500 nm using a Horiba FL3‐21 Fluorometer with the excitation wavelength of 285 nm and excitation/emission slits of 6.2 nm. Fluorescence spectra of 50 to 100 nM hCD1d were acquired in the absence and presence of detergents in 1X PBS pH 7.4 at 25°C. Prior to data acquisition, hCD1d and detergent or lipid samples were incubated at 37°C overnight (~12 h) to simulate in vitro and in vivo loading conditions. […] For 18:1 LPC experiments, fluorescence spectra of 100 nM hCD1d were acquired in the absence and presence of 18:1 LPC in 1X PBS pH 7.4 at 25°C. […] For all ITF experiments, the change in fluorescence signal (F − F 0/F 0) was determined at 335 nm. Three replicates were performed, and data are presented as the mean ± standard deviation (n = 3). K D values were fitted with non‐linear regression in GraphPad Prism v10.1.

[2] = target: T2, recombinant human CD1d ectodomain/β2m complex (hCD1d) (Homo sapiens, UniProt P15813+P61769); test: as above
T2 construct: TEV protease cleavage site ENLYFQS (C); BirA biotinylation site (C); His7 (C); made in house; host or cells: TurboCHO cells (GenScript)
Protocol: as §1, §2

hCD1d = hCD1d (Homo sapiens, UniProt P15813+P61769); test: Detergent competition with 18:1 LPC binding to hCD1d (ITF, MST, nanoDSF); parameters: TEV protease cleavage site ENLYFQS (C); BirA biotinylation site (C); His7 (C); made in house; host or cells: TurboCHO cells (GenScript); settings: 0.05% detergent
Protocol: We selected 18:1 LPC for the competition experiments since, first, a structure with hCD1d has been well characterized, and second, it binds hCD1d with moderate micromolar affinity, which is representative of many endogenous lipid antigens (Cantu et al., [2003]; López‐Sagaseta et al., [2012]). In the absence of detergent, 18:1 LPC produced concentration‐dependent changes in ITF and MST signal and decreased the melting temperature of hCD1d (ΔT m = −8.1 ± 1.7°C), indicative of specific binding and hCD1d destabilization (Figure 7c–e).
as §2, with “v10.1. […]” for “v10.1.”

[3] = target: T3, CSP 319‐328/HLA‐B*08:01/hβ2M complex (Homo sapiens, UniProt P01889, A93T/A95T/D138N/E176V/E187T/K202T/Q94N/R180D/S35A/V36M/Y33D/Y91F); test: MST with peptide/HLA complex; assay type: binding; settings: for MST normalized fluorescence signal (Fnorm): peptide/HLA with Tween 20, replicates
T3 construct: made in house
Description: To determine whether detergent effects were specific to hCD1d, we performed analogous ITF, MST, and nanoDSF experiments with a peptide/HLA complex. HLA‐B*08:01, presenting the Plasmodium falciparum derived peptide […] ([…]), was selected as a representative model system since the peptide antigen contains hydrophilic solvent‐exposed residues in the antigen‐binding groove (Frooman et al., [2025]). Although structurally similar to that of hCD1d, HLA‐B*08:01 shares low sequence identity (Figure S10a). […] By nanoDSF, ODG caused minimal destabilization of either complex (ΔT m≈−0.2 to −0.8°C; Figure S10f). […] We posit that lipid‐specific unloading effects of detergent are due to either hydrophobic residues in the antigen binding groove (detergent‐CD1d interactions) and/or the hydrophobic nature of the lipid antigen (detergent‐lipid interactions).
For comparison with peptide/HLA molecules, we prepared recombinant CSP 319‐328/HLA‐B*08:01/hβ2M complex using in vitro refolding methods fully described previously (Frooman et al., [2025]). The peptide sequence for CSP 319–328 is […]. This peptide was chosen since it contains Lys, Gln, and Asp residues predicted to be solvent‐exposed in the HLA‐B*08:01 binding groove (Frooman et al., [2025]).
MST experiments with peptide/HLA molecules and detergents were performed using an analogous protocol.

T2 sequence (P61769+P15813 fused): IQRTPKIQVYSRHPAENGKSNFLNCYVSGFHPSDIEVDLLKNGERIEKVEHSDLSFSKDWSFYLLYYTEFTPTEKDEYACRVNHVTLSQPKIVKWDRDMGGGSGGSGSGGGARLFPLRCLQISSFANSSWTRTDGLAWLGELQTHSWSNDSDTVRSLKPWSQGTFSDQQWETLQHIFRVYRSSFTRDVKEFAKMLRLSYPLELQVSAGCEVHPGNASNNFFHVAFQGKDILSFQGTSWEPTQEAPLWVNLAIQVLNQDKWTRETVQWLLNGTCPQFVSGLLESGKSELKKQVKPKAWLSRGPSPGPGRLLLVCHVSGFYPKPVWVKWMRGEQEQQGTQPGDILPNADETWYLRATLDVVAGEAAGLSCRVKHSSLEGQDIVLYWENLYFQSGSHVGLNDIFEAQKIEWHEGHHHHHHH
Chain of hCD1d (P61769+P15813 fused): as above
T1 sequence (P15813 whole entry, looked up, the tested form may be a part, one chain of several): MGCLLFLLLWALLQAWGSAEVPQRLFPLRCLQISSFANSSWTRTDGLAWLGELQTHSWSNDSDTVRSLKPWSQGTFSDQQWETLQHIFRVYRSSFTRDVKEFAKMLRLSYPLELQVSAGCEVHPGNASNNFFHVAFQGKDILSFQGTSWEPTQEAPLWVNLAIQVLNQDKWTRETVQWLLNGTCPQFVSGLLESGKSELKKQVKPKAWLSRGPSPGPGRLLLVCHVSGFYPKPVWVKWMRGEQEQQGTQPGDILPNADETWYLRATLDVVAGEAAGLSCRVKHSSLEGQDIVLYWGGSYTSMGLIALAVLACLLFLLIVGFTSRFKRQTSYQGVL

C[C@H](CCC(=O)NCCC[N+](C)(C)CCCS(=O)(=O)[O-])[C@H]1CC[C@H]2[C@@H]3[C@H](O)C[C@@H]4C[C@H](O)CC[C@]4(C)[C@H]3C[C@H](O)[C@]12C [CHAPS, 3‐((3‐cholamidopropyl) dimethylammonio)‐1‐propanesulfonate]
Kd [1]: 269 µM
binding to hCD1d by ITF (in words) [2]: observable binding
F-F0/F0 (rep 1-3) ([2]; 3.0518e-8 M detergent): 0
F-F0/F0 (rep 1-3) ([2]; 0.001 M detergent, 100 nM hCD1d): 0.1904 and 0.2276 and 0.116
Kd ([2]; read-out: K D (ITF), detergent with 100 nM hCD1d, 25°C, 1X PBS pH 7.4, apparent): < 400 µM
effect of detergent on 18:1 LPC binding to hCD1d (in words) (hCD1d): did not robustly outcompete binding

Tween 20
Kd ([3]; 100 nM AF647‐labeled peptide/HLA, 25°C, read-out: K D (MST), peptide/HLA): 10.1 ± 2.8 µM
MST normalized fluorescence signal (Fnorm) ([3]; concentration 3.05176e-8 (unit not given)): 826.857 and 829.996 and 831.035
MST normalized fluorescence signal (Fnorm) ([3]; concentration 6.10352e-8 (unit not given)): 827.636 and 831.405 and 830.579
MST normalized fluorescence signal (Fnorm) ([3]; concentration 1.2207e-7 (unit not given)): 825.955 and 829.58 and 832.602
MST normalized fluorescence signal (Fnorm) ([3]; concentration 2.44141e-7 (unit not given)): 826.8 and 829.861 and 831.726
MST normalized fluorescence signal (Fnorm) ([3]; concentration 4.88281e-7 (unit not given)): 824.798 and 829.349 and 832.449
MST normalized fluorescence signal (Fnorm) ([3]; concentration 9.76563e-7 (unit not given)): 827.728 and 832.261 and 832.695
MST normalized fluorescence signal (Fnorm) ([3]; concentration 1.95313e-6 (unit not given)): 829.662 and 834.525 and 833.392
MST normalized fluorescence signal (Fnorm) ([3]; concentration 3.90625e-6 (unit not given)): 826.877 and 835.214 and 835.492
MST normalized fluorescence signal (Fnorm) ([3]; concentration 7.8125e-6 (unit not given)): 836.072 and 833.005 and 835.4
MST normalized fluorescence signal (Fnorm) ([3]; concentration 1.5625e-5 (unit not given)): 830.346 and 831.213 and 835.161
MST normalized fluorescence signal (Fnorm) ([3]; concentration 3.125e-5 (unit not given)): 838.975 and 840.638 and 846.826
MST normalized fluorescence signal (Fnorm) ([3]; concentration 6.25e-5 (unit not given)): 839.005 and 846.034 and 849.234
MST normalized fluorescence signal (Fnorm) ([3]; concentration 0.000125 (unit not given)): 840.518 and 838.062 and 842.957
MST normalized fluorescence signal (Fnorm) ([3]; concentration 0.00025 (unit not given)): 834.255 and 840.226 and 843.206
MST normalized fluorescence signal (Fnorm) ([3]; concentration 0.0005 (unit not given)): 839.953 and 837.123 and 843.815
MST normalized fluorescence signal (Fnorm) ([3]; concentration 0.001 (unit not given)): 833.107 and 838.64 and 841.342
F-F0/F0 (rep 1-3) ([2]; 3.0518e-8 M detergent): 0
F-F0/F0 (rep 1-3) ([2]; 7.8125e-6 M detergent): 0.397 and 0.3783 and 0.411
F-F0/F0 (rep 1-3) ([2]; 1.5625e-5 M detergent): 0.321 and 0.292 and 0.428
F-F0/F0 (rep 1-3) ([2]; 3.125e-5 M detergent): 0.321 and 0.2971 and 0.409
F-F0/F0 (rep 1-3) ([2]; 6.25e-5 M detergent): 0.469 and 0.4298 and 0.387
F-F0/F0 (rep 1-3) ([2]; 0.000125 M detergent): 0.384 and 0.3339 and 0.39
F-F0/F0 (rep 1-3) ([2]; 0.00025 M detergent): 0.511 and 0.3507 and 0.554
F-F0/F0 (rep 1-3) ([2]; 0.0005 M detergent): 0.462 and 0.3634 and 0.631
Kd ([2]; Figure 5A, detergent binding to hCD1d, read-out: ITF - Kd (uM) average): 4.9 µM
Kd ([2]; detergent with 100 nM hCD1d, 25°C, 1X PBS pH 7.4, apparent, read-out: K D (ITF)): 4.9 ± 0.7 µM
effect of detergent on 18:1 LPC binding to hCD1d (in words) (hCD1d): abolished nearly all detectable binding signals
